From ChEMBL document CHEMBL1201862, “PubChem BioAssay data set” (2004)
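Exposure lasted 48 hours, with cells grown in 96-well plates and compounds tested at five concentrations. GI50 marks 50% less growth.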 Calls of active or inactive are those of the source. Rule as the data show it: active = GI50 up to about 1.1 µM and inactive = higher. *1 amine or outer side, *2 acyl side, *3 side chain or, on linkers, in order; H or OH if unused. Where a SMILES comes first, the peptide text is derived from it. Square brackets hold non-standard residues; d marks the D form. Peptide text beside a SMILES is read from it. [ ]: non-standard residue; d: D form. The star is where a group is joined. * marks the point of attachment. ξ: configuration not given here. NMeY = CN[C@@H](Cc1ccc(O)cc1)C(=O)O; Ethylenediamine = C(CN[*:2])N[*:1]; ξNMeL = CNC(CC(C)C)C(=O)O; Cbz = O=C(OCc1ccccc1)*; Lac = C[C@H](O)C(=O)O; ξA = CC(N)C(=O)O

What was measured:
Test in all cases: inhibition of tumour cell growth, NCI panel, 48 h
[1] = test system: HT-29
[2] = test system: COLO 205
[3] = test system: SN12C
[4] = test system: SK-MEL-5
[5] = test system: IGROV-1
[6] = test system: HCT-15
[7] = test system: RXF 393
[8] = test system: SK-MEL-2
[9] = test system: Hs-578T
[10] = test system: OVCAR-8
[11] = test system: MDA-MB-231
[12] = test system: LOX IMVI
[13] = test system: T47D
[14] = test system: NCI/ADR-RES
[15] = test system: NCI-H226
[16] = test system: A498
[17] = test system: NCI-H522
[18] = test system: OVCAR-5
[19] = test system: MDA-MB-435
[20] = test system: 786-0

Structure (SMILES) | GI50 [1] | GI50 [2] | GI50 [3] | GI50 [4] | GI50 [5] | GI50 [6] [µM] | GI50 [7] | GI50 [8] | GI50 [9] | GI50 [10] | GI50 [11] | GI50 [12] | GI50 [13] | GI50 [14] | GI50 [15] | GI50 [16] | GI50 [17] | GI50 [18] | GI50 [19] | GI50 [20]
NC(=O)C1CCCNC1 (stereo not given) | > 100 µM (inactive) | > 100 µM (inactive) | > 100 µM (inactive) | > 100 µM (inactive) | > 100 µM (inactive) | > 100 | > 100 µM (inactive) | > 100 µM (inactive) | > 100 µM (inactive) | > 100 µM (inactive) | > 100 µM (inactive) | > 100 µM (inactive) | > 100 µM (inactive) | > 100 µM (inactive) | > 100 µM (inactive) | > 100 µM (inactive) | > 100 µM (inactive) | > 100 µM (inactive) | > 100 µM (inactive) | > 100 µM (inactive)
Cc1cc(C)nc(NC(=O)COc2ccc(Cl)cc2)c1 | > 100 µM (inactive) | > 100 µM (inactive) | > 100 µM (inactive) | > 100 µM (inactive) | 75.3 µM (inactive) | > 100 | 71.8 µM (inactive) | > 100 µM (inactive) | > 100 µM (inactive) | > 100 µM (inactive) | > 100 µM (inactive) | > 100 µM (inactive) | 48.9 µM (inactive) | 66.4 µM (inactive) | > 100 µM (inactive) | > 100 µM (inactive) | 84.5 µM (inactive) | > 100 µM (inactive) | > 100 µM (inactive) | > 100 µM (inactive)
CC1CC(=O)N(N(C)C)C(C#N)(C#N)C1(C#N)C#N (stereo not given) | 17.2 µM (inactive) | 3 µM (inactive) | 21 µM (inactive) | 21.9 µM (inactive) | 20.2 µM (inactive) | 16.3 | 10.6 µM (inactive) | 25.5 µM (inactive) | 23.2 µM (inactive) | 20.9 µM (inactive) | 15.2 µM (inactive) | 17 µM (inactive) | 15.5 µM (inactive) | 21.7 µM (inactive) | 28.1 µM (inactive) | 17.8 µM (inactive) | 2.77 µM (inactive) | 23.9 µM (inactive) | 17 µM (inactive) | 12.2 µM (inactive)
O=C(/C=C/c1ccccc1)OCC1=C[C@@H](O)[C@@H]2C=CO[C@@H](OC3OC(CO)C(O)C(O)C3O)[C@H]12 (stereo not given in full) | > 100 µM (inactive) | > 100 µM (inactive) | > 100 µM (inactive) | > 100 µM (inactive) | > 100 µM (inactive) | > 100 | > 100 µM (inactive) | > 100 µM (inactive) | > 100 µM (inactive) | > 100 µM (inactive) | > 100 µM (inactive) | > 100 µM (inactive) | > 100 µM (inactive) | > 100 µM (inactive) | > 100 µM (inactive) | > 100 µM (inactive) | > 100 µM (inactive) | > 100 µM (inactive) | > 100 µM (inactive) | > 100 µM (inactive)
CC1=C(N2CC2)C(=O)c2nc3n(c2C1=O)CCC3OC(=O)CCl (stereo not given) | 0.0902 µM (active) | 0.128 µM (active) | 0.0573 µM (active) | 0.0428 µM (active) | 0.19 µM (active) | 0.0194 | 0.0338 µM (active) | 0.0478 µM (active) | 0.0279 µM (active) | 0.0452 µM (active) | 1.91 µM (inactive) | 0.0354 µM (active) | 1.11 µM (active) | 0.0249 µM (active) | 0.064 µM (active) | 0.061 µM (active) | 0.0274 µM (active) | 0.0692 µM (active) | 0.0298 µM (active) | 0.052 µM (active)
Nc1nc(O)c(Br)c(-c2cccc([N+](=O)[O-])c2)n1 | > 100 µM (inactive) | > 100 µM (inactive) | > 100 µM (inactive) | > 59.6 µM (inactive) | > 83.8 µM (inactive) | > 100 | > 100 µM (inactive) | > 100 µM (inactive) | > 100 µM (inactive) | 73.5 µM (inactive) | > 100 µM (inactive) | > 100 µM (inactive) | 91 µM (inactive) | > 100 µM (inactive) | 49.9 µM (inactive) | > 100 µM (inactive) | 26.4 µM (inactive) | > 69.8 µM (inactive) | > 100 µM (inactive) | > 100 µM (inactive)
COc1ccc(C[C@@H](C(=O)NCCNC(=O)C(CC(C)C)N(C)C(=O)[C@@H]2CCCN2C(=O)[C@H](C)O)N(C)C(=O)[C@@H]2CCCN2C(=O)[C@H](CC(C)C)NC(=O)C(C)NC(=O)OCc2ccccc2)cc1 (stereo not given in full) (Cbz-[ξA]LP[NMeY](Me)-{Ethylenediamine-ξNMeL-Pro-Lac}) | 72.3 µM (inactive) | 77.6 µM (inactive) | > 100 µM (inactive) | 33.5 µM (inactive) | > 100 µM (inactive) | 82 | 97.7 µM (inactive) | > 100 µM (inactive) | 12.9 µM (inactive) | > 100 µM (inactive) | 91.4 µM (inactive) | 37 µM (inactive) | 72.6 µM (inactive) | > 100 µM (inactive) | > 100 µM (inactive) | > 100 µM (inactive) | > 100 µM (inactive) | > 100 µM (inactive) | 54.2 µM (inactive) | > 100 µM (inactive)
COc1ccc(C[C@@H](C(=O)N[C@@H](C)C(N)=O)N(C)C(=O)[C@@H]2CCCN2C(=O)[C@H](CC(C)C)NC(=O)C(C)NC(=O)OCc2ccccc2)cc1 (stereo not given in full) (Cbz-[ξA]LP[NMeY](Me)A-NH2) | > 100 µM (inactive) | > 100 µM (inactive) | > 100 µM (inactive) | 76.2 µM (inactive) | 51.8 µM (inactive) | > 100 | > 100 µM (inactive) | > 100 µM (inactive) | 4.94 µM (inactive) | > 100 µM (inactive) | > 100 µM (inactive) | > 100 µM (inactive) | > 100 µM (inactive) | > 100 µM (inactive) | > 100 µM (inactive) | > 100 µM (inactive) | > 100 µM (inactive) | > 100 µM (inactive) | > 100 µM (inactive) | > 100 µM (inactive)
